Marks after values point to notes of the source that are not given here.
Legend:
Plasmopara viticola = assay: Test D: grape downy mildew, spray after inoculation of grape seedlings; assay type: in vivo
Text: Upon removal, disease ratings were made. […] A dash (-) indicates no test results.

Phytophthora infestans = assay: whole plant or invertebrate; assay type: in vivo
Septoria tritici = assay: Test J: wheat leaf blotch, preventive spray on wheat seedlings; assay type: in vivo
Text: A dash (-) indicates no test results.

fusarium graminearium = assay: Test I: wheat head scab, preventive spray on wheat seedlings
Protocol: (the causal agent of wheat head scab) and incubated in a saturated atmosphere at 20° C. for 72 h, and then moved to a growth chamber at 22° C. for 5 days, after which disease ratings were made.

[1] = test system: Puccinia recondita f. sp. tritici; assay: Test K: wheat leaf rust, preventive spray on wheat seedlings
Botrytis cinerea = assay: Test E: tomato botrytis, preventive spray on tomato seedlings
Septoria nodorum = assay: Test H: wheat glum blotch, preventive spray on wheat seedlings
Protocol: (the causal agent of wheat glum blotch) and incubated in a saturated atmosphere at 20° C. for 48 h, and then moved to a growth chamber at 22° C. for 5 days, after which disease ratings were made.

[2] = test system: Erysiphe graminis f. sp. tritici; assay: Test L: wheat powdery mildew, preventive spray on wheat seedlings
Pythium aphanidermatum = assay: Test A: bluegrass pythium blight, preventive spray on bluegrass seedlings
Rhizoctonia oryzae = assay: Test G: turf brown patch, preventive spray on creeping bent grass seedlings
Protocol: (the causal agent of turf brown patch) and incubated in a saturated atmosphere at 27° C. for 24 h, and then moved to a growth chamber at 27° C. for 5 days, after which disease ratings were made.

[3] = test system: Colletotrichum orbiculare; assay: Test B: cucumber Colletotrichum anthracnose, preventive spray on cucumber seedlings
[4] = 40 ppm (marked *), 100 = 100% disease control, 0 = no control
[5] = 200 ppm, 100 = 100% disease control, 0 = no control
[6] = 200 ppm, 100 = 100% disease control, 0 = no control relative to controls

CC(C)Cn1c(-c2ccc(Cl)cc2)c(Cl)nc(-n2cccn2)c1=O [compound 22]
Test D disease control rating (Plasmopara viticola; 200 ppm): 0% | Test F disease control rating (Phytophthora infestans; 200 ppm): 0% | Test J disease control rating (Septoria tritici; 200 ppm): 98% | Test I disease control rating (fusarium graminearium; 200 ppm): 0% | Test K disease control rating ([1]; 200 ppm): 79% | Test E disease control rating (Botrytis cinerea; 200 ppm): 100% | Test H disease control rating (Septoria nodorum; 200 ppm): 0% | Test L disease control rating ([2]; 200 ppm): 0% | Test A disease control rating (Pythium aphanidermatum; 200 ppm): 0% | Test G disease control rating (Rhizoctonia oryzae; 200 ppm): 0% | Test B disease control rating ([3]; 200 ppm): 0%

CC(c1ccccc1)n1c(-c2c(F)cccc2F)c(Cl)nc(-n2cncn2)c1=O (stereo not shown) [compound 108]
Test D disease control rating (Plasmopara viticola; 200 ppm): 0% | Test F disease control rating (Phytophthora infestans; 200 ppm): 0% | Test J disease control rating (Septoria tritici; 200 ppm): 11% | Test I disease control rating (fusarium graminearium; 200 ppm): 0% | Test K disease control rating ([1]; 200 ppm): 0% | Test E disease control rating (Botrytis cinerea; 200 ppm): 56% | Test H disease control rating (Septoria nodorum; 200 ppm): 0% | Test L disease control rating ([2]; 200 ppm): 0% | Test A disease control rating (Pythium aphanidermatum; 200 ppm): 0% | Test G disease control rating (Rhizoctonia oryzae; 200 ppm): 0% | Test B disease control rating ([3]; 200 ppm): 0%

CCCC(C)n1c(-c2c(F)cccc2F)c(Cl)nc(-n2cccn2)c1=O (stereo not shown) [compound 25]
Test D disease control rating (Plasmopara viticola; 200 ppm): 0% | Test F disease control rating (Phytophthora infestans; 200 ppm): 0% | Test J disease control rating (Septoria tritici; 200 ppm): 100% | Test I disease control rating (fusarium graminearium; 200 ppm): 0% | Test K disease control rating ([1]; 200 ppm): 100% | Test E disease control rating (Botrytis cinerea; 200 ppm): 99% | Test H disease control rating (Septoria nodorum; 200 ppm): 100% | Test L disease control rating ([2]; 200 ppm): 100% | Test A disease control rating (Pythium aphanidermatum; 200 ppm): 0% | Test G disease control rating (Rhizoctonia oryzae; 200 ppm): 100% | Test B disease control rating ([3]; 200 ppm): 100%

CCc1ccccc1-c1c(Cl)nc(-n2cncn2)c(=O)n1CC(C)C [compound 196]
Test D disease control rating (Plasmopara viticola; 40 ppm (*)): 0* % | Test F disease control rating (Phytophthora infestans; 40 ppm (*)): 0* % | Test J disease control rating (Septoria tritici; 40 ppm (*)): 0* % | Test I disease control rating (fusarium graminearium; 40 ppm (*)): 44* % | Test K disease control rating ([1]; 40 ppm (*)): 0* % | Test E disease control rating (Botrytis cinerea; 40 ppm (*)): 0* % | Test H disease control rating (Septoria nodorum; 40 ppm (*)): 0* % | Test L disease control rating ([2]; 40 ppm (*)): 0* % | Test A disease control rating (Pythium aphanidermatum; 40 ppm (*)): 0* % | Test G disease control rating (Rhizoctonia oryzae; 40 ppm (*)): 0* % | Test B disease control rating ([3]; 40 ppm (*)): 0* %

CC[C@H](C)Cn1c(-c2ccc(F)cc2Cl)c(Cl)nc(-n2ccc(C)n2)c1=O [compound 262]
Test D disease control rating (Plasmopara viticola; [4]): 17* % | Test F disease control rating (Phytophthora infestans; [4]): 39* % | Test J disease control rating (Septoria tritici; [4]): 100* % | Test I disease control rating (fusarium graminearium; [4]): 0* % | Test K disease control rating [1, 4]: 100* % | Test E disease control rating (Botrytis cinerea; [4]): 100* % | Test H disease control rating (Septoria nodorum; [4]): 100* % | Test L disease control rating [2, 4]: 99* % | Test A disease control rating (Pythium aphanidermatum; [4]): 0* % | Test G disease control rating (Rhizoctonia oryzae; [4]): 76* % | Test B disease control rating [3, 4]: 100* %

Cc1ccn(-c2nc(Cl)c(-c3c(F)cccc3F)n(-c3ccccc3C)c2=O)n1 [compound 329]
Test D disease control rating (Plasmopara viticola; [4]): 0* % | Test F disease control rating (Phytophthora infestans; [4]): 0* % | Test J disease control rating (Septoria tritici; [4]): 100* % | Test I disease control rating (fusarium graminearium; [4]): 0* % | Test K disease control rating [1, 4]: 96* % | Test E disease control rating (Botrytis cinerea; [4]): 99* % | Test H disease control rating (Septoria nodorum; [4]): 100* % | Test L disease control rating [2, 4]: 76* % | Test A disease control rating (Pythium aphanidermatum; [4]): 83* % | Test G disease control rating (Rhizoctonia oryzae; [4]): 26* % | Test B disease control rating [3, 4]: 31* %

CC(C)Cn1c(-c2ccoc2)c(Cl)nc(-n2cccn2)c1=O [compound 153]
Test D disease control rating (Plasmopara viticola; 200 ppm): 31% | Test F disease control rating (Phytophthora infestans; 200 ppm): 0% | Test J disease control rating (Septoria tritici; 40 ppm (*)): 20* % | Test I disease control rating (fusarium graminearium; 200 ppm): 0% | Test K disease control rating ([1]; 40 ppm (*)): 0* % | Test E disease control rating (Botrytis cinerea; 40 ppm (*)): 79* % | Test H disease control rating (Septoria nodorum; 40 ppm (*)): 0* % | Test L disease control rating ([2]; 40 ppm (*)): 0* % | Test A disease control rating (Pythium aphanidermatum; 200 ppm): 0% | Test G disease control rating (Rhizoctonia oryzae; 40 ppm (*)): 0* % | Test B disease control rating ([3]; 40 ppm (*)): 0* %

CCCC(C)n1c(-c2c(F)cccc2F)c(Cl)nc(-n2cccn2)c1=O (stereo not shown) [compound 180]
Test D disease control rating (Plasmopara viticola; 40 ppm (*)): 0* % | Test F disease control rating (Phytophthora infestans; 40 ppm (*)): 0* % | Test J disease control rating (Septoria tritici; 40 ppm (*)): 98* % | Test I disease control rating (fusarium graminearium; 40 ppm (*)): 0* % | Test K disease control rating ([1]; 40 ppm (*)): 100* % | Test E disease control rating (Botrytis cinerea; 40 ppm (*)): 99* % | Test H disease control rating (Septoria nodorum; 40 ppm (*)): 99* % | Test L disease control rating ([2]; 40 ppm (*)): 95* % | Test A disease control rating (Pythium aphanidermatum; 40 ppm (*)): 0* % | Test G disease control rating (Rhizoctonia oryzae; 40 ppm (*)): 94* % | Test B disease control rating ([3]; 40 ppm (*)): 66* %

O=c1c(-n2cccn2)nc(Cl)c(-c2c(F)cc(F)cc2F)n1Cc1cccc(Br)c1 [compound 344]
Test D disease control rating (Plasmopara viticola; [5]): 0% | Test F disease control rating (Phytophthora infestans; [5]): 0% | Test J disease control rating (Septoria tritici; [4]): 100* % | Test I disease control rating (fusarium graminearium; [5]): 93% | Test K disease control rating [1, 4]: 99* % | Test E disease control rating (Botrytis cinerea; [4]): 92* % | Test H disease control rating (Septoria nodorum; [4]): 99* % | Test L disease control rating [2, 4]: 0* % | Test A disease control rating (Pythium aphanidermatum; [5]): 0% | Test G disease control rating (Rhizoctonia oryzae; [4]): 16* % | Test B disease control rating [3, 4]: 0* %

CC(=O)Nc1nc(Cl)c(-c2c(F)cccc2F)n(CC(C)C)c1=O [compound 423]
Test D disease control rating (Plasmopara viticola; [6]): 0% | Test F disease control rating (Phytophthora infestans; [6]): 0% | Test J disease control rating (Septoria tritici; [4]): 46* % | Test I disease control rating (fusarium graminearium; [6]): 60% | Test K disease control rating [1, 6]: 97% | Test E disease control rating (Botrytis cinerea; [6]): 100% | Test H disease control rating (Septoria nodorum; [6]): 0% | Test L disease control rating [2, 6]: 97% | Test A disease control rating (Pythium aphanidermatum; [6]): 0% | Test G disease control rating (Rhizoctonia oryzae; [6]): 95% | Test B disease control rating [3, 6]: 0%

C=C(C)Cn1c(-c2c(F)cccc2F)c(Cl)nc(-n2cccn2)c1=O [compound 30]
Test D disease control rating (Plasmopara viticola; 200 ppm): 0% | Test F disease control rating (Phytophthora infestans; 200 ppm): 0% | Test J disease control rating (Septoria tritici; 200 ppm): 100% | Test I disease control rating (fusarium graminearium; 200 ppm): 0% | Test K disease control rating ([1]; 200 ppm): 100% | Test E disease control rating (Botrytis cinerea; 200 ppm): 99% | Test H disease control rating (Septoria nodorum; 200 ppm): 100% | Test L disease control rating ([2]; 200 ppm): 100% | Test A disease control rating (Pythium aphanidermatum; 200 ppm): 0% | Test G disease control rating (Rhizoctonia oryzae; 200 ppm): 98% | Test B disease control rating ([3]; 200 ppm): 99%

Source: patent US20080194585A1, “Fungicidal Pyrazine Derivatives” (priority 2005, published 2008)
